From patent US6583147B1, “Pyrazolopyrimidinone derivatives for the treatment of impotence” (Dong A Pharm Co., Ltd., priority 1998, dated 2003)
Blank lines part the entries; values can stand above or below the compound they belong to.

Assays:
rats = test: Penile erection test using rats; type: in vivo, rat; conditions: oral single dose 10 mg/kg in 0.5% methyl cellulose, observed for 2 hours
[1] = biological target: T1, Phosphodiesterase-5 enzyme (PDE 5) (Homo sapiens, UniProt O76074); test: Test for phosphodiesterase-5 (PDE 5) activity; type: biochemical; conditions: PDE 5 fraction from human corpus cavernosal tissues
T1 construct: separated by HPLC (Mono Q anion exchange column) with concentration gradient of 0-500 mM NaCl to elute PDE isozymes; from tissue; host or cells: human corpus cavernosal tissue

SMILES: CCOc1ccc(S(=O)(=O)NC(C)C)cc1-c1nc2c(CC(C)C)nn(C)c2c(=O)[nH]1 [Example 4]
PEI (penile erection index) (rats): 133.3 ± 57.7
genital grooming (number of genital groomings) (rats): 2.3 ± 1.2

SMILES: CCCc1nn(C)c2c(=O)[nH]c(-c3cc(S(=O)(=O)NC(CC)CC)ccc3OCC)nc12 [Example 11]
PEI (penile erection index) (rats): 100 ± 0.0
genital grooming (number of genital groomings) (rats): 2.7 ± 2.1

SMILES: CCCc1nn(C)c2c(=O)[nH]c(-c3cc(S(=O)(=O)NC(C)(C)C)ccc3OCC)nc12 [Example 12]
PEI (penile erection index) (rats): 22.2 ± 38.5
genital grooming (number of genital groomings) (rats): 0.3 ± 0.6

SMILES: CCOc1ccc(S(=O)(=O)NC2CC2)cc1-c1nc2c(CC(C)C)nn(C)c2c(=O)[nH]1 [Example 15]
PEI (penile erection index) (rats): 111.1 ± 101.8
genital grooming (number of genital groomings) (rats): 0.7 ± 0.6

SMILES: CCCOc1ccc(S(=O)(=O)NC2CC2)cc1-c1nc2c(CCC)nn(C)c2c(=O)[nH]1 [Example 16]
PEI (penile erection index) (rats): 100 ± 0
genital grooming (number of genital groomings) (rats): 1.7 ± 0.6

SMILES: CCCc1nn(C)c2c(=O)[nH]c(-c3cc(S(=O)(=O)NC4CCC4)ccc3OCC)nc12 [Example 17]
PEI (penile erection index) (rats): 66.7 ± 66.7
genital grooming (number of genital groomings) (rats): 1.0 ± 1.0

SMILES: CCCc1nn(C)c2c(=O)[nH]c(-c3cc(S(=O)(=O)NC4CCCC4)ccc3OCC)nc12 [Example 18]
PEI (penile erection index) (rats): 44.4 ± 38.5
genital grooming (number of genital groomings) (rats): 1.3 ± 0.6

SMILES: CCOc1ccc(S(=O)(=O)NC2CCCCC2)cc1-c1nc2c(CC(C)C)nn(C)c2c(=O)[nH]1 [Example 20]
PEI (penile erection index) (rats): 266.7 ± 57.7
genital grooming (number of genital groomings) (rats): 2.3 ± 0.6

SMILES: CCCc1nn(C)c2c(=O)[nH]c(-c3cc(S(=O)(=O)NCC4CCCO4)ccc3OCC)nc12 (stereo not shown) [Example 21]
PEI (penile erection index) (rats): 44.4 ± 38.5
genital grooming (number of genital groomings) (rats): 2.3 ± 1.5

SMILES: CCCc1nn(C)c2c(=O)[nH]c(-c3cc(S(=O)(=O)Nc4ccccc4)ccc3OCC)nc12 [Example 25]
PEI (penile erection index) (rats): 44.4 ± 38.5
genital grooming (number of genital groomings) (rats): 2.0 ± 0.0

SMILES: CCCc1nn(C)c2c(=O)[nH]c(-c3cc(S(=O)(=O)Nc4ccc(C)cc4)ccc3OCC)nc12 [Example 27]
PEI (penile erection index) (rats): 66.7 ± 66.7
genital grooming (number of genital groomings) (rats): 2.7 ± 1.2

SMILES: CCOc1ccc(S(=O)(=O)Nc2ccc(C(C)(C)C)cc2)cc1-c1nc2c(CC(C)C)nn(C)c2c(=O)[nH]1 [Example 30]
PEI (penile erection index) (rats): 133.3 ± 57.7
genital grooming (number of genital groomings) (rats): 2.3 ± 0.6

SMILES: CCCc1nn(C)c2c(=O)[nH]c(-c3cc(S(=O)(=O)Nc4cc(C)cc(C)c4)ccc3OCC)nc12 [Example 32]
PEI (penile erection index) (rats): 66.7 ± 66.7
genital grooming (number of genital groomings) (rats): 1.3 ± 1.5

SMILES: CCCc1nn(C)c2c(=O)[nH]c(-c3cc(S(=O)(=O)Nc4ccccn4)ccc3OCC)nc12 [Example 42]
PEI (penile erection index) (rats): 33.3 ± 57.7
genital grooming (number of genital groomings) (rats): 1.3 ± 1.5

SMILES: CCCc1nn(C)c2c(=O)[nH]c(-c3cc(S(=O)(=O)NCc4ccncc4)ccc3OCC)nc12 [Example 43]
PEI (penile erection index) (rats): 11.1 ± 19.3
genital grooming (number of genital groomings) (rats): 0.7 ± 0.6

SMILES: CCCc1nn(CC)c2c(=O)[nH]c(-c3cc(S(=O)(=O)NCc4ccncc4)ccc3OCC)nc12 [Example 45]
PEI (penile erection index) (rats): 22.2 ± 38.5
genital grooming (number of genital groomings) (rats): 0.7 ± 1.2

SMILES: CCCc1nn(C)c2c(=O)[nH]c(-c3cc(S(=O)(=O)NCc4ccccn4)ccc3OCC)nc12 [Example 50]
PEI (penile erection index) (rats): 44.3 ± 38.5
genital grooming (number of genital groomings) (rats): 1.0 ± 0.0

IC50 [1]: 103 nM
SMILES: CCCc1nn(C)c2c(=O)[nH]c(-c3cc(S(=O)(=O)NCC4CCCN4C)ccc3OCC)nc12 (stereo not shown) [Example 55]
PEI (penile erection index) (rats): 350.0 ± 173.2
genital grooming (number of genital groomings) (rats): 3.8 ± 1.5

IC50 [1]: 93.9 nM
SMILES: CCCc1nn(CC)c2c(=O)[nH]c(-c3cc(S(=O)(=O)NCC4CCN(C)C4)ccc3OCC)nc12 (stereo not shown) [Example 61]
PEI (penile erection index) (rats): 25.0 ± 28.9
genital grooming (number of genital groomings) (rats): 0.8 ± 0.5
